Measured values taken from patent US20140057954A1, “CHEMICAL COMPOSITION” (FOREST LABORATORIES HOLDINGS LTD., priority 2012, published 2014).
Converted amounts (≈) assume the structure as drawn.

Experiments:
[1] = Crossover trial of nebivolol exposure, alone versus in free combination with valsartan, once daily for 7 days; format: in vivo, human
Method: […], 3-way crossover trial was performed in healthy subjects to assess the pharmacokinetic (pK) and pharmacodynamic (pD) impact of administered valsartan on nebivolol.
28 subjects aged 19-45 were randomized to the following once-daily treatments for 7 days under fasted conditions: (A) nebivolol alone (20 mg tablet) and (B) concomitant nebivolol 20 mg+valsartan 320 mg in free combination. Blood samples were collected from each subject for pK analysis at the following time points: 0 hour (predose) on Days 1, 14, and 27 and at 0 hour (predose) and 1, 2, 4, 6, 10, 16, 24, 36, and 48 hours postdose on Days 7, 20, and 33.
The bioanalytical procedure used to measure plasma concentrations of nebivolol was a LC/MS/MS (liquid chromatography/tandem mass spectrometry) method.
Among the pK parameters measured were AUC0-τ,ss (area under the plasma concentration versus time curve from time 0 to the dosing interval, τ, at steady state); Cdmax,ss (maximum plasma drug concentration at steady state); Tmax,ss (time of maximum plasma drug concentration following drug administration at steady state); Cmin,ss minimum plasma drug concentration at steady state); Cav,ss (average plasma drug concentration at steady state); and CL/F (apparent total clearance from plasma after oral administration). These pK parameters were derived from plasma concentrations using noncompartmental analysis with the software program SAS (version 9.1.3). In addition, the 2-sided 90% confidence interval (CI) for the ratio of geometric means of Cmax and AUC0-τ,ss between nebivolol coadministered with valsartan and nebivolol alone were constructed.

[2] = test system: patients with mild to moderate hypertension; assay: Population PK/PD analysis (Emax model) of nebivolol plasma concentration versus mean sitting DBP; format: in vivo, human
Method: The study involved first determining the relationship between nebivolol plasma concentration and the therapeutic diastolic blood pressure (DBP)-reducing effect by nebivolol when administered alone. A population PK/PD analysis was performed to assess the relationship between nebivolol plasma concentration and its therapeutic DBP-reducing effect. The analysis utilized PK/PD data that was collected from patients with mild to moderate hypertension following a Phase 3, double-blind, placebo-controlled, multicenter study. During the study, patients were randomized to 7 parallel treatment arms wherein the patient received either a placebo or any of 6 different doses of nebivolol (between 1.25 and 40 mg). The patients were also stratified across all treatment arms by covariates of race (African American vs non-African American), age (<65 vs≧65 years), gender, diabetes status (history of diabetes mellitus vs no history of diabetes mellitus), and by metabolism of nebivolol (PM vs EM of CYP 2D6). Blood pressure data was collected from each patient initially and at days 28 and 84 of treatment. The study results were refined and updated using nonlinear mixed-effects modeling (NONMEM) software, version VII, with first-order conditional estimation/interaction method. […] Moreover, the EC50 (half maximal effective concentration) was determined.

[3] = coadministered with valsartan versus nebivolol alone

## OC(CNCC(O)C1CCc2cc(F)ccc2O1)C1CCc2cc(F)ccc2O1 (centres unmarked) [nebivolol]
[1]; [3]
  decrease in mean nebivolol AUC0-τ: 15-20%
  decrease in mean nebivolol Cmax: 40-50%
[1]; human, plasma, oral, 20 mg nebivolol once daily for 7 days, alone or with 320 mg valsartan, healthy subjects, fasted, steady state, read-out: nebivolol AUC0-τ, Arithmetic Mean
  AUC: 41.5 ng·h/mL
[1]; human, plasma, oral, 20 mg nebivolol once daily for 7 days, alone or with 320 mg valsartan, healthy subjects, fasted, steady state, read-out: nebivolol Cmax, Arithmetic Mean
  Cmax: 8.02 ng/mL
[1]; in the presence of valsartan
  Cmax and CSS,max reduction: approximately 50%
  mean reduction in nebivolol Cavg and CSS,avg: ~20%
[2]; Homo sapiens, Emax model, mean sitting DBP, Phase 3 data, nebivolol 1.25-40 mg, read-out: EC50 estimate of d,l-nebivolol concentrations (DBP PK/PD model)
  EC50: 0.0179 ng/mL (≈ 0.0441 nM)
[2]; after correction for the placebo effect
  Emax in DBP reduction: approximately 5 mm Hg
